Measurements from patent publication US9695155B2, “Herbicidal substituted pyrimidinyloxy benzene compounds” (E. I. DU PONT DE NEMOURS AND COMPANY, priority 2013, dated 2017).

Columns and labels:
Italian ryegrass [1] = test: Test A postemergence; format: in vivo, Lolium multiflorum
Summary of the method: (§1)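 Visual 0–100 rating (100 = complete control) taken about 10 d post-treatment relative to untreated checks. Preemergence: directed soil spray on sown loam/sand pots. Postemergence: seedlings 2–10 cm, 1–2 leaf. Non-phytotoxic solvent formulation with surfactant.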

kochia [2] = test: Test A preemergence; format: in vivo, Kochia scoparia; details: for Plant response rating, Kochia: 125 g ai/ha
Summary of the method: as §1

sedge, umbrella = test: Test B flooded paddy test; format: in vivo, Cyperus difformis; details: Flood, 250 g ai/ha, 0 to 100 scale where 0 is no effect and 100 is complete control
Summary of the method: (§2)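 Visual ratings on a 0 to 100 scale, where 100 means complete control, compared treated plants with controls after 13 to 15 days in a greenhouse. Treatment went into paddy water 3 cm deep over the soil, applied to plants at the 2-leaf stage.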

barnyardgrass [3] = test: Test A postemergence; format: in vivo, Echinochloa crus-galli
Summary of the method: as §1

Heteranthera limosa = test: Test B flooded paddy test; format: in vivo; details: Flood, 250 g ai/ha, 0 to 100 scale where 0 is no effect and 100 is complete control
Summary of the method: as §2

barnyardgrass [4] = test: Test A preemergence; format: in vivo, Echinochloa crus-galli; details: for Plant response rating, Barnyardgrass: 125 g ai/ha; for Barnyardgrass plant response rating: 500 g ai/ha
Summary of the method: as §1

corn = test: Test A postemergence; format: in vivo, Zea mays
Summary of the method: as §1

giant foxtail [5] = test: Test A preemergence; format: in vivo, Setaria faberii; details: for Plant response rating, Foxtail, Giant: 125 g ai/ha; for Foxtail, Giant plant response rating: 500 g ai/ha
Summary of the method: as §1

ragweed [6] = test: Test A preemergence; format: in vivo, Ambrosia elatior; details: for Plant response rating, Ragweed: 125 g ai/ha
Summary of the method: as §1

giant foxtail [7] = test: Test A postemergence; format: in vivo, Setaria faberii
Summary of the method: as §1

wheat = test: Test A postemergence; format: in vivo, Triticum aestivum
Summary of the method: as §1

Italian ryegrass [8] = test: Test A preemergence; format: in vivo, Lolium multiflorum; details: for Plant response rating, Ryegrass, Italian: 125 g ai/ha
Summary of the method: as §1

barnyardgrass [9] = test: Test B flooded paddy test; format: in vivo, Echinochloa crus-galli; details: Flood, 250 g ai/ha, 0 to 100 scale where 0 is no effect and 100 is complete control
Summary of the method: as §2

kochia [10] = test: Test A postemergence; format: in vivo, Kochia scoparia
Summary of the method: as §1

pigweed [11] = test: Test A preemergence; format: in vivo, Amaranthus retroflexus; details: for Plant response rating, Pigweed: 125 g ai/ha; for Pigweed plant response rating: 500 g ai/ha
Summary of the method: as §1

galium = test: Test A postemergence; format: in vivo, Galium aparine
Summary of the method: as §1

blackgrass = test: Test A postemergence; format: in vivo, Alopecurus myosuroides
Summary of the method: as §1

rice = test: Test B flooded paddy test; format: in vivo, Oryza sativa; details: Flood, 250 g ai/ha, 0 to 100 scale where 0 is no effect and 100 is complete control
Summary of the method: as §2

pigweed [12] = test: Test A postemergence; format: in vivo, Amaranthus retroflexus
Summary of the method: as §1

ragweed [13] = test: Test A postemergence; format: in vivo, Ambrosia elatior
Summary of the method: as §1

[14] = 1000 g ai/ha, 0 to 100 scale, 0 no effect, 100 complete control
[15] = 1000 g ai/ha, 0 to 100 scale, 0 no effect, 100 complete control, approx. 10 days
[16] = 31 g ai/ha, 0 to 100 scale, 0 no effect, 100 complete control
[17] = 0 to 100 scale where 0 is no effect and 100 is complete control
[18] = 125 g ai/ha, 0 to 100 scale where 0 is no effect and 100 is complete control
[19] = 500 g ai/ha, 0 to 100 scale where 0 is no effect and 100 is complete control
[20] = 500 g ai/ha, 0 to 100 scale, 0 no effect, 100 complete control, approx. 10 days
[21] = 500 g ai/ha, 0 to 100 scale, 0 no effect, 100 complete control
[22] = 0 to 100 scale, 0 no effect, 100 complete control, approx. 10 days

FC(F)(F)c1cnn(-c2c(Oc3ncc(Cl)cn3)cccc2-c2nnco2)c1 [Compound 298, 2-[3-[(5-chloro-2-pyrimidinyl)oxy]-2-[4-(trifluoromethyl)-1H-pyrazol-1-yl]phenyl]-1,3,4-oxadiazole]
80: Plant response rating, Galium (galium; [14]) | Plant response rating, Blackgrass (blackgrass; [14])
100%: pest or weed control at 1000 g/ha (barnyardgrass [4]; Echinochloa crus-galli, pre-emergence, 240 h, 1000 g ai/ha, 0 to 100 scale, 0 no effect, 100 complete control, approx. 10 days, read-out: Barnyardgrass plant response rating) | pest or weed control at 1000 g/ha (giant foxtail [5]; Setaria faberi, pre-emergence, 240 h, 1000 g ai/ha, 0 to 100 scale, 0 no effect, 100 complete control, approx. 10 days, read-out: Foxtail, Giant plant response rating) | pest or weed control at 1000 g/ha (pigweed [11]; Amaranthus retroflexus, pre-emergence, 240 h, 1000 g ai/ha, 0 to 100 scale, 0 no effect, 100 complete control, approx. 10 days, read-out: Pigweed plant response rating) | pest or weed control at 1000 g/ha (pigweed [12]; Amaranthus retroflexus, post-emergence, 240 h, 1000 g ai/ha, 0 to 100 scale, 0 no effect, 100 complete control, read-out: Plant response rating Pigweed)
90: Kochia plant response rating (kochia [2]; [15]) | Ragweed plant response rating (ragweed [6]; [15]) | Plant response rating, Ragweed (ragweed [13]; [14])
50: Ryegrass, Italian plant response rating (Italian ryegrass [8]; [15])
0%: pest or weed control at 250 g/ha (Heteranthera limosa; Heteranthera limosa, read-out: Plant response rating, Ducksalad) | pest or weed control at 250 g/ha (barnyardgrass [9]; Echinochloa crus-galli, read-out: Plant response rating, Barnyardgrass) | plant injury at 250 g/ha (rice; Oryza sativa, read-out: Plant response rating, Rice)
30%: pest or weed control at 250 g/ha (sedge, umbrella; Cyperus difformis, read-out: Plant response rating, Sedge, Umbrella)
90%: pest or weed control at 1000 g/ha (barnyardgrass [3]; Echinochloa crus-galli, post-emergence, 240 h, 1000 g ai/ha, 0 to 100 scale, 0 no effect, 100 complete control, read-out: Plant response rating Barnyardgrass) | pest or weed control at 1000 g/ha (giant foxtail [7]; Setaria faberi, post-emergence, 240 h, 1000 g ai/ha, 0 to 100 scale, 0 no effect, 100 complete control, read-out: Plant response rating Foxtail, Giant)
40%: plant injury at 1000 g/ha (wheat; Triticum aestivum, post-emergence, 240 h, 1000 g ai/ha, 0 to 100 scale, 0 no effect, 100 complete control, read-out: Plant response rating Wheat)
100: Plant response rating, Kochia (kochia [10]; [14])
70%: plant injury at 1000 g/ha (corn; Zea mays, post-emergence, 240 h, 1000 g ai/ha, 0 to 100 scale, 0 no effect, 100 complete control, read-out: Plant response rating Corn)
70: Plant response rating, Ryegrass, Italian (Italian ryegrass [1]; [14])

N#Cc1cccc(Oc2ncc(Cl)cn2)c1-n1cc(OCC(F)F)cn1 [Compound 99]
20: Plant response rating, Ryegrass, Italian (Italian ryegrass [1]; [16]) | Plant response rating, Corn (corn; [16])
0: Plant response rating, Sedge, Umbrella (sedge, umbrella) | Plant response rating, Ducksalad (Heteranthera limosa) | Ryegrass, Italian plant response rating (0 to 100 scale) (Italian ryegrass [8]; 31 g ai/ha) | Plant response rating, Barnyardgrass (barnyardgrass [9]) | Plant response rating, Rice (rice)
50: Plant response rating, Wheat (wheat; [16]) | Plant response rating, Blackgrass (blackgrass; [16])
80: Barnyardgrass plant response rating (0 to 100 scale) (barnyardgrass [4]; 31 g ai/ha)
70: Ragweed plant response rating (0 to 100 scale) (ragweed [6]; 31 g ai/ha)
30: Plant response rating, Ryegrass, Italian (Italian ryegrass [8]; [17]) | Plant response rating, Ragweed (ragweed [13]; [16])
90: Plant response rating, Barnyardgrass (barnyardgrass [4]; [17]) | Plant response rating, Corn (corn; [18]) | Plant response rating, Ragweed (ragweed [6]; [17]) | Plant response rating, Foxtail, Giant (giant foxtail [7]; [16]) | Plant response rating, Galium (galium; [16]) | Plant response rating, Blackgrass (blackgrass; [18])
100: Kochia plant response rating (0 to 100 scale) (kochia [2]; 31 g ai/ha) | Plant response rating, Kochia (kochia [2]; [17]) | Plant response rating, Barnyardgrass (barnyardgrass [3]; [16]) | Plant response rating, Barnyardgrass (barnyardgrass [3]; [18]) | Foxtail, Giant plant response rating (0 to 100 scale) (giant foxtail [5]; 31 g ai/ha) | Plant response rating, Foxtail, Giant (giant foxtail [5]; [17]) | Plant response rating, Foxtail, Giant (giant foxtail [7]; [18]) | Plant response rating, Kochia (kochia [10]; [16]) | Plant response rating, Kochia (kochia [10]; [18]) | Pigweed plant response rating (0 to 100 scale) (pigweed [11]; 31 g ai/ha) | Plant response rating, Pigweed (pigweed [11]; [17]) | Plant response rating, Galium (galium; [18]) | Plant response rating, Pigweed (pigweed [12]; [16])

CS(=O)(=O)c1cccc(Oc2ncc(Cl)cn2)c1-n1cc(Br)cn1 [Compound 142]
0: Ryegrass, Italian plant response rating (Italian ryegrass [1]; [18]) | Plant response rating, Ryegrass, Italian (Italian ryegrass [1]; [19]) | Plant response rating, Kochia (kochia [2]; [17]) | Plant response rating, Sedge, Umbrella (sedge, umbrella) | Barnyardgrass plant response rating (barnyardgrass [3]; [18]) | Plant response rating, Barnyardgrass (barnyardgrass [3]; [19]) | Plant response rating, Ducksalad (Heteranthera limosa) | Plant response rating, Barnyardgrass (barnyardgrass [4]; [17]) | Barnyardgrass plant response rating (barnyardgrass [4]; [17]) | Corn plant response rating (corn; [18]) | Plant response rating, Corn (corn; [19]) | Plant response rating, Foxtail, Giant (giant foxtail [5]; [17]) | Foxtail, Giant plant response rating (giant foxtail [5]; [17]) | Plant response rating, Ragweed (ragweed [6]; [17]) | Foxtail, Giant plant response rating (giant foxtail [7]; [18]) | Plant response rating, Foxtail, Giant (giant foxtail [7]; [19]) | Wheat plant response rating (wheat; [18]) | Plant response rating, Wheat (wheat; [19]) | Plant response rating, Ryegrass, Italian (Italian ryegrass [8]; [17]) | Ryegrass, Italian plant response rating (Italian ryegrass [8]; [19]) | Plant response rating, Barnyardgrass (barnyardgrass [9]) | Kochia plant response rating (kochia [10]; [18]) | Plant response rating, Pigweed (pigweed [11]; [17]) | Pigweed plant response rating (pigweed [11]; [17]) | Galium plant response rating (galium; [18]) | Plant response rating, Galium (galium; [19]) | Blackgrass plant response rating (blackgrass; [18]) | Plant response rating, Blackgrass (blackgrass; [19]) | Plant response rating, Rice (rice) | Pigweed plant response rating (pigweed [12]; [18]) | Plant response rating, Pigweed (pigweed [12]; [19]) | Ragweed plant response rating (ragweed [13]; [18]) | Plant response rating, Ragweed (ragweed [13]; [19])
20: Ragweed plant response rating (ragweed [6]; [19])
70: Plant response rating, Kochia (kochia [10]; [19])
50: Kochia plant response rating (kochia [2]; [19])

CC(C)(C)c1cnn(-c2c(C#N)cccc2Oc2ncc(Cl)cn2)c1 [Compound 82]
20: Plant response rating, Ryegrass, Italian (Italian ryegrass [1]; [19]) | Plant response rating, Barnyardgrass (barnyardgrass [3]; [21]) | Plant response rating, Foxtail, Giant (giant foxtail [7]; [19]) | Plant response rating, Galium (galium; [19])
50: Plant response rating, Blackgrass (blackgrass; [21])
60: Pigweed plant response rating (pigweed [11]; [22])
10: Plant response rating, Corn (corn; [21]) | Plant response rating, Foxtail, Giant (giant foxtail [5]; [17]) | Plant response rating, Kochia (kochia [10]; [19]) | Plant response rating, Galium (galium; [18]) | Plant response rating, Blackgrass (blackgrass; [18]) | Plant response rating, Pigweed (pigweed [12]; [18]) | Plant response rating, Ragweed (ragweed [13]; [19])
70: Foxtail, Giant plant response rating (giant foxtail [5]; [22])
30: Plant response rating, Ducksalad (Heteranthera limosa) | Barnyardgrass plant response rating (barnyardgrass [4]; [22]) | Plant response rating, Wheat (wheat; [19])
0: Plant response rating, Ryegrass, Italian (Italian ryegrass [1]; [18]) | Plant response rating, Kochia (kochia [2]; [17]) | Kochia plant response rating (kochia [2]; [20]) | Plant response rating, Sedge, Umbrella (sedge, umbrella) | Plant response rating, Barnyardgrass (barnyardgrass [3]; [18]) | Plant response rating, Barnyardgrass (barnyardgrass [4]; [17]) | Plant response rating, Corn (corn; [18]) | Plant response rating, Ragweed (ragweed [6]; [17]) | Ragweed plant response rating (ragweed [6]; [20]) | Plant response rating, Foxtail, Giant (giant foxtail [7]; [18]) | Plant response rating, Wheat (wheat; [18]) | Plant response rating, Ryegrass, Italian (Italian ryegrass [8]; [17]) | Ryegrass, Italian plant response rating (Italian ryegrass [8]; [20]) | Plant response rating, Barnyardgrass (barnyardgrass [9]) | Plant response rating, Kochia (kochia [10]; [18]) | Plant response rating, Pigweed (pigweed [11]; [17]) | Plant response rating, Rice (rice) | Plant response rating, Ragweed (ragweed [13]; [18])
40: Plant response rating, Pigweed (pigweed [12]; [19])
